Assay results from patent US20240261245A1, “METHODS OF TREATING CANCERS HAVING A DEREGULATED NRF2/KEAP1 PATHWAY” (New York University, priority 2017, published 2024).
Structures can show the parent of a compound that is named as a salt. Where two headings read alike, the source gives them in different places. Values belong to the molecule of their own block, whether it stands above or below them.

Key:
KPK cell lines = assay: Viability/growth of KPK (Keap1 loss) cell lines compared to KP (cell titer glo, trypan blue, crystal violet); format: cell-based, mouse
Method: (§1) Cells were maintained in DMEM or RPMI supplemented with 10% Fetal Bovine Serum and gentamicin. Cell lines expressing rtTA were kept under Neomycin selection (400 ug/mL). Cell lines expressing dox inducible Nrf2 constructs remained under Hygromycin selection (600 ug/mL). […] Viability in the presence of all compounds was assessed by cell titer glo (Promega #G7570) and trypan blue exclusion on a Countess II automated cell counter (Life Technologies). For clonogenic and low-density assays, cells were stained with Crystal Violet solution (25% Methanol 75% H20). For cell counts after DMF treatment cells were fixed with 4% paraformaldehyde for 15 minutes at 4 C. Cells were then washed in ice cold PBS and then stained with Hoechst DNA stain. Plates were quantified using a Tecan infinite M200 Pro plate reader or a SpectraMax M5 Miroplate reader (Molecular Devices).

[1] = system: KP, KPN and KPK cell lines; assay: Viability of isogenic cell line panel treated with oxidative stress inducers (cell-titer glo); format: cell-based, mouse; details: 72 hours of drug treatment
Method: as §1

glutathione (GSH) = assay: Glutathione measurement (GSH/GSSG-Glo) after BSO; format: cell-based, mouse
Method: ROS in cultured cells were measured by incubating […] with 5 μM CM-H2DCFDA (C6827, Life Technologies) for 30 min at 37° C. DCF fluorescence was acquired on the Attune NxT (ThermoFisher) flow cytometer and analyzed using FlowJo software (Tree Star). Reduced (GSH) and oxidized glutathione (GSSG) was measured with a GSH/GSSG-Glo Assay kit (V6611, Promega) for the indicated amount of time.

KPN-ix cell lines = assay: BSO dose response in KPN-ix cells with doxycycline inducible GOF-Nrf2; format: cell-based, mouse
Method: as §1

[2] = intraperitoneal, 50 mg/kg daily over 30 days; cited from earlier work
GPD2 = details: in vivo; cited from earlier work
Nrf2 [3] = assay: Western blot for Nrf2 after oxidative stress inducer DMF in isogenic KP/KPK cells; format: cell-based, mouse; details: control (KP) cells; 6 hour DMF treatment
Excerpt: To perform in vitro functional characterization of and Keap1, isogenic cell lines were generated from a Kras^LSL-G12D/+; p53^−/− C57B6 GEMM-derived cell line using the CRISPR/Cas9 and sgRNAs against Keap1. LOF of the gene was validated by western blot analysis in basal conditions and in the presence of an oxidative stress inducer, dimethyl fumarate (DMF), which is known to deplete the cellular glutathione pool and induce Nrf2 activation (Sullivan et al., “The Proto-oncometabolite Fumarate Binds Glutathione to Amplify ROS-Dependent Signaling,” Molecular Cell 51:236-248 (2013), which is hereby incorporated by reference in its entirety). It was observed that Nrf2 is induced in control cells in response to 6 hour DMF treatment. Keap1 LOF leads to a robust increase of Nrf2 even in the absence of DMF (FIG. 13).

KPN cells = assay: Viability of KPN (Nrf2 loss) cells under oxidative stress agents; format: cell-based, mouse; details: KPN cells treated with oxidative stress agents (BSO, AUR, ERA)
Method: as §1

KP-derived tumors = assay: CB-839 treatment of KP-derived subcutaneous and orthotopic tumors in immunodeficient animals; format: in vivo, mouse; details: subcutaneous and orthotopic transplants; 200 mg/kg CB-839 twice a day
Method: (§2) Animals were treated as before (Davidson et al. 2016, Cell Metab 23:517-528, doi: 10.1016/j.cmet.2016.01.007) with 200 mg/kg CB-839 or vehicle twice a day after tumor establishment phase. The vehicle contained 25% (w/v) hydroxypropyl-β-cyclodextrin in 10 mmol/L citrate (pH 2.0), and CB-839 was formulated at 20 mg/mL for a final dosing volume of 10 mL/kg.
(§3) It was next asked if increased glutamine utilization in KPK cell lines could be a druggable metabolic liability. […] Consistently, a panel of human lung cancer cells containing KEAP1 mutations or GOF mutations in NRF2 were sensitive to glutaminase inhibition while KEAP1 WT cells were largely resistant (FIG. 9C and FIG. 10B). […] To investigate the therapeutic potential of targeting glutaminase in Keap mutant tumors in vivo, KP and KPK cells were transplanted subcutaneously and orthotopically (lung) in immunodeficient animals. Once tumors had established, treatment was initiated with either vehicle or CB-839, an orally bioavailable glutaminase inhibitor in phase I clinical trials for KRAS mutant NSCLC (FIG. 9E).

T cell = assay: Impact of CB839 on T cell function (data not shown); format: cell-based
KP-ix cells = assay: Viability counts of KP-ix cells (doxycycline inducible GOF-Nrf2) with CB-839; format: cell-based, mouse; details: CB-839 250 nM, 72 hours
Method: as §1

[4] = system: KPK-derived subcutaneous and orthotopic tumors; assay: CB-839 treatment of KPK-derived subcutaneous and orthotopic tumors in immunodeficient animals; format: in vivo, mouse
Method: as §2, §3

Nrf2 [5] = details: SFN 10 μM for 6 hr
Method: as §1
Cells were lysed in 250 μL ice-cold RIPA buffer (Pierce, #89900) supplemented with 1 × Complete Mini inhibitor mixture (Roche, #11 836 153 001) and mixed on a rotator at 4° C. for 30 minutes. The protein concentration of the cell lysates was quantified using the Bio-Rad DC Protein Assay (Catalog #500-0114). 50-80 μg of total protein was separated on 4-12% Bis-Tris gradient gels (Bio-Rad) by SDS-PAGE and then transferred to nitrocellulose membranes. […]
RNA was collected from cells as before (Papagiannakopoulos et al. (2016, Cell Metab 24, 324-331, doi:10.1016/j.cmet.2016.07.001) with RNeasy plus mini kit (Qiagen), sequenced with X analyzed with YZ. For Real Time qPCR analysis, complementary DNA (cDNA) was synthesized from RNA with the High Capacity cDNA Reverse Transcription Kit (Applied Biosystems #4368814). Genes Slc7a11, Gclc, Hmox1, and Nqo1 were analyzed by quantitative reverse transcription polymerase chain reaction on LightCycler 480 II (Roche). RT qPCR primers (Supplementary Sequences).

SMILES: O=CC[C@@H](O)[C@H](O)[C@H](O)CO [2-deoxy-D-glucose]
sensitivity to glycolytic inhibitor (KPK cell lines; KPK compared to KP cells, 5 mM 2DG for 72 h): increased sensitivity

IC50 of BSO (KPN-ix cell lines; KPN-ix +dox versus -dox, 72 hours): increase
SMILES: CCCCS(=N)(=O)CCC(N)C(=O)O [BSO, L-Buthionine-sulfoximine]
genotype-specific sensitivity (cell viability) [1]: distinct genotype-specific sensitivities | levels of GSH and viability (glutathione (GSH); KPK compared to KP clones, 100 μM BSO): maintain measurable levels of GSH and viability | GSH pools (glutathione (GSH); KPN clones, after 12 hours of BSO treatment (100 μM)): rapid exhaustion of GSH pools | reduced glutathione (GSH): oxidized glutathione (GSSG) ratio (glutathione (GSH); panel of isogenic cell lines (KP, KPN, KPK)): stark contrast | BSO-mediated loss of viability upon induction of GOF-Nrf2 (KPN-ix cell lines; 72 hours of dox induction): rescued

SMILES: CN(C)C(=N)N=C(N)N [metformin]
toxicity [2]: no toxicity | GPD2 enzymatic activity (GPD2): inhibits

SMILES: COC(=O)/C=C/C(=O)OC [DMF, Dimethyl fumarate]
Nrf2 induction (western blot) (Nrf2 [3]): induced

SMILES: CC(=O)N[C@@H](CS)C(=O)O [N-acetyl cysteine, N-acetyl-L-cysteine]
rescue of loss of viability by antioxidants (KPN cells): rescued

SMILES: Cc1c(C)c2c(c(C)c1O)CCC(C)(C(=O)O)O2 (stereo not shown) [Trolox]
rescue of loss of viability by antioxidants (KPN cells): rescued

SMILES: O=C(Cc1cccc(OC(F)(F)F)c1)Nc1ccc(CCCCc2nnc(NC(=O)Cc3ccccn3)s2)nn1 [CB-839]
tumor response to treatment (KP-derived tumors): no response | impact on T cell function (T cell): does not negatively impact T cell function | sensitivity to glutaminase inhibitors (KPK cell lines; KPK compared to KP cell lines, 72 hours): far more sensitive | sensitivity to CB-839 upon induction of GOF-Nrf2 (KP-ix cells): robust sensitivity | final tumor weights ([4]; 200 mg/kg CB-839 twice a day versus vehicle): smaller final tumor weights | tumor growth over the course of the experiment ([4]; subcutaneous and orthotopic transplants, 200 mg/kg CB-839 twice a day): dramatic stunted growth

SMILES: CC(=O)OC[C@H]1O[C@@H]([S-])[C@H](OC(C)=O)[C@@H](OC(C)=O)[C@@H]1OC(C)=O.CCP(CC)CC.[Au+] [auranofin, Auranofin]
genotype-specific sensitivity (cell viability) [1]: distinct genotype-specific sensitivities

SMILES: C[S+]([O-])CCCCN=C=S (racemic) [Sulforaphane, D,L-Sulforaphane]
Nrf2 protein levels and expression of target genes (Nrf2 [5]; KP cells): stabilized Nrf2 protein levels and expression of target genes | Nrf2 protein levels and expression of target genes (Nrf2 [5]; KP cells, listed as SFN): accumulation of Nrf2 occurs only in the KP samples | Nrf2 protein levels and expression of target genes (Nrf2 [5]; KPK or KPN cells, listed as SFN): not further stabilized
